Measured values from patent publication US20260262643A1, “HERBICIDAL BENZOXAZINES” (FMC CORPORATION, priority 2022, published 2026).

What was measured:
[1] = test system: sedge, umbrella; experiment: Test B flooded paddy test; type: in vivo, Cyperus difformis; conditions: 250 g ai/ha, Flood, 13 days, 0 to 100 scale (0 no effect, 100 complete control)
How it was run: (§1)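 Percent weed or crop control, judged by eye on a 0–100 scale 13 days post-treatment, reflects compound added to a 3 cm flood maintained over 2-leaf plants in the greenhouse. Missing entries are marked with a dash.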

[2] = test system: ragweed; experiment: Test A postemergence; type: in vivo, Ambrosia artemisiifolia; conditions: postemergence, 10 days
How it was run: (§2)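 Greenhouse pot test, 10 days. Compound (non-phytotoxic solvent, surfactant) sprayed on soil at seeding or on seedlings at one- to two-leaf stage. Visual injury rated 0–100 against untreated plants.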

[3] = test system: blackgrass; experiment: Test A preemergence; type: in vivo, Alopecurus myosuroides
How it was run: as §2

[4] = test system: foxtail, giant; experiment: Test A preemergence; type: in vivo, Setaria faberi
How it was run: as §2

[5] = test system: horseweed; experiment: Test A postemergence; type: in vivo, Erigeron canadensis; conditions: postemergence, 10 days
How it was run: as §2

[6] = test system: oat, wild; experiment: Test A postemergence; type: in vivo, Avena fatua; conditions: postemergence, 10 days
How it was run: as §2

[7] = test system: corn; experiment: Test A postemergence; type: in vivo, Zea mays; conditions: postemergence, 10 days
How it was run: as §2

[8] = test system: ragweed; experiment: Test A preemergence; type: in vivo, Ambrosia artemisiifolia
How it was run: as §2

[9] = test system: wheat; experiment: Test A postemergence; type: in vivo, Triticum aestivum; conditions: postemergence, 10 days
How it was run: as §2

[10] = test system: soybean; experiment: Test A postemergence; type: in vivo, Glycine max; conditions: postemergence, 10 days
How it was run: as §2

[11] = test system: pigweed, palmer; experiment: Test A preemergence; type: in vivo, Amaranthus palmeri
How it was run: as §2

[12] = test system: pigweed, palmer; experiment: Test A postemergence; type: in vivo, Amaranthus palmeri; conditions: postemergence, 10 days
How it was run: as §2

[13] = test system: foxtail, giant; experiment: Test A postemergence; type: in vivo, Setaria faberi; conditions: postemergence, 10 days
How it was run: as §2

[14] = test system: oat, wild; experiment: Test A preemergence; type: in vivo, Avena fatua
How it was run: as §2

[15] = test system: ryegrass, Italian; experiment: Test A preemergence; type: in vivo, Lolium multiflorum
How it was run: as §2

[16] = test system: goosegrass; experiment: Test A preemergence; type: in vivo, Eleusine indica
How it was run: as §2

[17] = test system: blackgrass; experiment: Test A postemergence; type: in vivo, Alopecurus myosuroides; conditions: postemergence, 10 days
How it was run: as §2

[18] = test system: ryegrass, Italian; experiment: Test A postemergence; type: in vivo, Lolium multiflorum; conditions: postemergence, 10 days
How it was run: as §2

[19] = test system: ducksalad; experiment: Test B flooded paddy test; type: in vivo, Heteranthera limosa; conditions: 250 g ai/ha, Flood, 13 days, 0 to 100 scale (0 no effect, 100 complete control)
How it was run: as §1

[20] = test system: soybean; experiment: Test A preemergence; type: in vivo, Glycine max
How it was run: as §2

[21] = test system: rice; experiment: Test B flooded paddy test; type: in vivo, Oryza sativa; conditions: 250 g ai/ha, Flood, 13 days, 0 to 100 scale (0 no effect, 100 complete control)
How it was run: as §1

[22] = test system: corn; experiment: Test A preemergence; type: in vivo, Zea mays
How it was run: as §2

[23] = test system: goosegrass; experiment: Test A postemergence; type: in vivo, Eleusine indica; conditions: postemergence, 10 days
How it was run: as §2

[24] = test system: kochia; experiment: Test A postemergence; type: in vivo, Bassia scoparia; conditions: postemergence, 10 days
How it was run: as §2

[25] = test system: barnyardgrass; experiment: Test B flooded paddy test; type: in vivo, Echinochloa crus-galli; conditions: 250 g ai/ha, Flood, 13 days, 0 to 100 scale (0 no effect, 100 complete control)
How it was run: as §1

[26] = test system: kochia; experiment: Test A preemergence; type: in vivo, Bassia scoparia
How it was run: as §2

[27] = test system: wheat; experiment: Test A preemergence; type: in vivo, Triticum aestivum
How it was run: as §2

[28] = 125 g ai/ha, 0 to 100 scale, 0 no effect, 100 complete control
[29] = 500 g ai/ha, visual injury, 0 to 100 scale (0 no effect, 100 complete control)
[30] = 125 g ai/ha, visual injury after 10 days, 0 to 100 scale, 0 is no effect, 100 is complete control
[31] = 500 g ai/ha, 0 to 100 scale (0 no effect, 100 complete control), 10 days

## CCCCc1ncn(-c2cccc(C(=O)N3C[C@H](C)Oc4c(C)cccc43)c2)n1 [Compound 86]
[1]
  Plant response rating, Sedge, Umbrella: 90
[2]; [28]
  Ragweed plant response rating: 50
[2]; [29]
  Plant response rating, Ragweed: 50
[3]; [30]
  Plant response rating, Blackgrass: 0
[3]; [31]
  Plant response rating, Blackgrass: 30
[4]; [30]
  Plant response rating, Foxtail, Giant: 0
[4]; [31]
  Plant response rating, Foxtail, Giant: 70
[5]; [28]
  Horseweed plant response rating: 0
[5]; [29]
  Plant response rating, Horseweed: 0
[6]; [28]
  Oat, Wild plant response rating: 0
[6]; [29]
  Plant response rating, Oat, Wild: 10
[7]; [28]
  Corn plant response rating: 0
[7]; [29]
  Plant response rating, Corn: 10
[8]; [30]
  Plant response rating, Ragweed: 0
[8]; [31]
  Plant response rating, Ragweed: 0
[9]; [28]
  Wheat plant response rating: 10
[9]; [29]
  Plant response rating, Wheat: 20
[10]; [28]
  Soybean plant response rating: 50
[10]; [29]
  Plant response rating, Soybean: 100
[11]; [30]
  Plant response rating, Pigweed, Palmer: 20
[11]; [31]
  Plant response rating, Pigweed, Palmer: 90
[12]; [28]
  Pigweed, Palmer plant response rating: 20
[12]; [29]
  Plant response rating, Pigweed, Palmer: 40
[13]; [28]
  Foxtail, Giant plant response rating: 10
[13]; [29]
  Plant response rating, Foxtail, Giant: 20
[14]; [30]
  Plant response rating, Oat, Wild: 0
[14]; [31]
  Plant response rating, Oat, Wild: 80
[15]; [30]
  Plant response rating, Ryegrass, Italian: 70
[15]; [31]
  Plant response rating, Ryegrass, Italian: 100
[16]; [30]
  Plant response rating, Goosegrass: 60
[16]; [31]
  Plant response rating, Goosegrass: 90
[17]; [28]
  Blackgrass plant response rating: 0
[17]; [29]
  Plant response rating, Blackgrass: 30
[18]; [28]
  Ryegrass, Italian plant response rating: 10
[18]; [29]
  Plant response rating, Ryegrass, Italian: 50
[19]
  Plant response rating, Ducksalad: 65
[20]; [30]
  Plant response rating, Soybean: 0
[20]; [31]
  Plant response rating, Soybean: 0
[21]
  Plant response rating, Rice: 0
[22]; [30]
  Plant response rating, Corn: 0
[22]; [31]
  Plant response rating, Corn: 20
[23]; [28]
  Goosegrass plant response rating: 10
[23]; [29]
  Plant response rating, Goosegrass: 50
[24]; [28]
  Kochia plant response rating: 50
[24]; [29]
  Plant response rating, Kochia: 90
[25]
  Plant response rating, Barnyardgrass: 0
[26]; [30]
  Plant response rating, Kochia: 60
[26]; [31]
  Plant response rating, Kochia: 70
[27]; [30]
  Plant response rating, Wheat: 0
[27]; [31]
  Plant response rating, Wheat: 10
